Measured values as given in patent US6492389B1, “Small molecule inhibitors of BCL-2 proteins” (Thomas Jefferson University, priority 1998, dated 2002).
Entries after “also recorded” stand apart in the source; their conditions may differ.

Key:
[1] = target: T1, Bcl-2 protein (Homo sapiens, UniProt P10415); experiment: Bcl-2 competition binding assay (fluorescence polarization, Flu-1193 probe); conditions: for concentration-dependent competition binding: increasing compound concentrations, HA14-1 1 to 100 μM
T1 construct: purified soluble Bcl-2 proteins purchased from Santa Cruz Biotechnology, Inc., Calif; purchased Santa Cruz Biotechnology, Inc
T1 sequence (P10415 1-205 limits assumed): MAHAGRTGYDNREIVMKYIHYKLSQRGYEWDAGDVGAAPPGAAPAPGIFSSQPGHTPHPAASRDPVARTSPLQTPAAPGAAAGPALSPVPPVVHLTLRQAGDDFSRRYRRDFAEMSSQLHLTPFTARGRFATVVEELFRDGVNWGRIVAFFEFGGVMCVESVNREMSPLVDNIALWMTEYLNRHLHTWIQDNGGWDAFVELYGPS

[2] = tested on: 697 cells; experiment: DNA fragmentation assay in 697 cells; type: cell-based, human; conditions: 50 μM, 48 hours
Description: The Bcl-transfected cells were incubated with Bcl-2 inhibitor test compounds at 50 μM for 24 hours and then examined for apoptosis by the following DNA fragmentation assay. Then the treated cells were washed in PBS, lysed in digestion buffer (100 mM NaCl, 10 mM Tris-Cl, pH8, 25 mM EDTA, pH 8, 0.5% SDS, 0.1 mg/ml proteinase K), and incubated overnight at 50° C. The samples were extracted three times with phenol-chloroform, precipitated with an equal volume isopropanol, and spun down for 15 minutes in a microcentrifuge at room temperature. The DNA precipitate was washed once with 70% ethanol and resuspended in TE buffer containing 200 μg/ml DNase-free RNase A (Boehringer Mannheim, Indianapolis, Ind.). Alter incubation at 37° C. for 30 min., the DNA was loaded into a 2% agarose mini-gel with 2 μg/ml ethidium bromide, and electrophoresis is run at 50 V for 2 hours in 0.5×TBE buffer. The gel was destained with water for 1 hour arid photographed under UV light.
First, the ethidium bromide stain concentration was 1 μg/ml instead of 2 μg/ml. Second, the cells for the assay comprised 697 cells. The 697 line is a human pre-B leukemia line with a t(1; 19) chromosomal translocation (no translocation involving Bcl-2). Bcl-2 is highly expressed in this line. The high expression of Bcl-2 in 697 cells was confirmed by protein immunoblot analysis (data not shown). […] DNA markers were phiX174 DNA with restriction endonuclease Hae III (Boehringer Mannheim, Indianapolis, Ind.). The cells were incubated with test compound at 50 μM concentration or Taxol at 5 μM concentration for 48 hours.

[3] = tested on: HL-60 cell line transfected with Bcl-2; experiment: DNA fragmentation assay in Bcl-2-transfected HL-60 cells; type: cell-based, human; conditions: for DNA fragmentation (reversal of Bcl-2 block of apoptosis): 50 μM, 24 hours
[4] = tested on: HL-60 neo line; experiment: Control apoptosis experiment in HL-60 neo line; type: cell-based, human; conditions: 50 μM
[5] = tested on: 697 cells; conditions: positive control; cited from earlier work
[6] = tested on: HL-60 cell line transfected with Bcl-2; conditions: 50 μM etoposide; cited from earlier work
[7] = tested on: HL-60 cell line (parent line); conditions: 50 μM etoposide; cited from earlier work

With `COc1ccc(CCNC(=O)c2sc3c([N+](=O)[O-])cc(C(F)(F)F)cc3[n+]2[O-])cc1OC` [HA02] the concentration-dependent competition binding [1] was “clear concentration-dependent competition binding was observed”, the Kd ([1]; read-out: binding affinity (KD)) was 15 µM and the “DNA fragmentation / apoptosis induction” value [2] was “induced DNA fragmentation to various extents”.
With `O=C1c2ccccc2SC(c2ccccc2)C1CN1CCN(C(C(=O)O)C(=O)O)CC1` (stereo not shown) [HA03] the concentration-dependent competition binding [1] was “clear concentration-dependent competition binding was observed”.
In the case of `Nc1nc(N)c2c(Oc3ccccc3)cccc2n1` [HA04], the concentration-dependent competition binding [1] is reported as “clear concentration-dependent competition binding was observed” and the “DNA fragmentation / apoptosis induction” value [2] is reported as “induced DNA fragmentation to various extents”.
With `COc1cc(C2c3cc4c(cc3OC(N3CCOCC3)C2C)OCO4)cc(OC)c1O` (stereo not shown) [HA11-57, 2,6-DI-MEO-4-(7-ME-6-MORPHOLIN-4-YL-6H- [1,3]DIOXOLO[4,5-G]CHROMEN-8-YL)-PHENOL] the “DNA fragmentation (reversal of Bcl-2 block of apoptosis)” value [3] was “DNA fragmentation is apparent”.
With `O=C1Nc2ccccc2/C1=C/c1ccc[nH]1` [HA12-16] the “apoptosis induction in cells not regulated by Bcl-2” value [4] was “lack of effect in inducing apoptosis” and the “DNA fragmentation / apoptosis induction” value ([2]; listed as HA01) was “induced DNA fragmentation to various extents; also recorded: induced apoptosis in the 697 cells”.
For `CC(=O)c1cc(C(=O)c2ccccc2)n2ccc(Cc3ccc([N+](=O)[O-])cc3)cc12` [HA13], the “DNA fragmentation (reversal of Bcl-2 block of apoptosis)” value [3] was “DNA fragmentation is apparent”.
With `CCOC(=O)C1=C(N)Oc2ccc(Br)cc2C1C(C#N)C(=O)OCC` (stereo not shown) [HA14-1, ETHYL 2-AMINO-6- BROMO-4-(1-CYANO-2- ETHOXY-2-OXOETHYL)- 4H-CHROMENE-3- CARBOXYLATE] the concentration-dependent competition binding [1] was “clear concentration-dependent competition binding was observed” and the “DNA fragmentation after fluoromethyl ketone pretreatment” value ([3]; 100 μM fluoromethyl ketone 2 hours, then 50 μM HA14-1 24 hours) was “neutralize the action of HA14-1”.
In the case of `COC1OC2COC(c3ccccc3)O[C@H]2[C@@H](OC(C)=O)[C@H]1OS(=O)(=O)c1ccccc1` (stereo partly shown) [HA14], the “DNA fragmentation (reversal of Bcl-2 block of apoptosis)” value [3] is reported as “DNA fragmentation is apparent”.
For `CC(=O)O[C@H]1C(=O)[C@@]2(C)[C@H]([C@H](OC(=O)c3ccccc3)[C@]3(O)C[C@H](OC(=O)[C@H](O)[C@@H](NC(=O)c4ccccc4)c4ccccc4)C(C)=C1C3(C)C)[C@]1(OC(C)=O)CO[C@@H]1C[C@@H]2O` [Taxol], the “apoptosis induction in 697 cells (known)” value [5] is listed as “known to induce apoptosis in 697 cells”.
In the case of `COc1cc([C@@H]2c3cc4c(cc3[C@@H](O[C@@H]3O[C@@H]5CO[C@@H](C)O[C@H]5[C@H](O)[C@H]3O)[C@H]3COC(=O)[C@H]23)OCO4)cc(OC)c1O` [etoposide], the “sensitivity of Bcl-2-transfected cells to apoptosis-inducing drug” value [6] is given as “resistant” and the “sensitivity of cells to apoptosis-inducing drug” value [7] is given as “sensitive”.
